Assay results published in patent US9044428B2, “Neuritogenic peptides” (Neoloch ApS, priority 2005, dated 2015).

Experiments:
[1] = test system: Cerebellar granule neuron (CGN) cultures; experiment: Stimulation of neurite outgrowth from cerebellar granule neurons in vitro; type: cell-based, rat; conditions: 24 h treatment of CGN cultures
Text: Cerebellar granule neuron (CGN) cultures were obtained from 3-4-day-old Wistar rats (Charles River, Sulzfeld, Germany, or Moellegaard, Denmark) as previously described by Schousboe et al. (1989). Briefly, the cerebella were dissected, cleared of meninges and blood vessels, chopped, and trypsinized. The neurons were washed in the presence of DNAse 1 and soybean trypsin inhibitor (Sigma), and cellular debris was pelleted by centrifugation; the cells resuspended and then plated on poly-L-lysine (PLL; Sigma)-coated or uncoated microtiter plates in Neurobasal medium supplemented with 4% (w/v) bovine serum albumin (BSA), 2% (v/v) B27, 1% (v/v) glutamax, 100 U/ml penicillin, 100 gi/ml streptomycin, 4.5 g D-glucose/L (Sigma) 0.25% (v/v) sodium pyruvate, and 2% (v/v) 1 M HEPES (Gibco BRL).

Primary cultures of CGN = experiment: Survival of CGN induced to undergo apoptosis (low KCl) in vitro; type: cell-based, rat; conditions: apoptosis induced by reducing KCl to 5 mM, two days
Protocol: Primary cultures of CGN were plated at a density of 100 000 cells/cm^2 on poly-L-lysine coated 8-well permanox slides in Neurobasal-A medium (Gibco BRL) supplemented with 2% (v/v) B27, 0.5% (v/v) glutamax, 100 units/mL penicillin, 100 μg/mL streptomycin and KCl, making the final concentration of KCl in the medium 40 mm, Twenty-four hours after plating, Ara-C (Sigma-Aldrich) was added to a final concentration of 10 μm to avoid proliferation of glial cells, after which the neurons were allowed to differentiate for a further 6 days at 37° C. Apoptotic cell death was induced by washing twice and changing the medium to Basal Medium Eagle (BME; Gibco BRL) supplemented with 1% (v/v) glutamine, 100 U/mL, penicillin and 100 μg/mL streptomycin, 3.5 g d-glucose/L and 1% (v/v) sodium pyruvate (Gibco BRL) together with various concentrations of peptide. Thereby the concentration of potassium in the cultures was reduced to 5 mm KCl (D'Mello et al. 1993). Two days after induction of apoptosis, the cells were fixed with 4% (v/v) formaldehyde and stained with Hoechst 33258 as described for the survival assay employing hippocampal neurons.

[2] = test system: human erythroleukemia cells TF-1; experiment: Proliferation of TF-1 cells (BrdU incorporation ELISA); type: cell-based
Protocol: Evaluation of the effect of four EPO-derived peptides on cell proliferation was performed using a TF-1 cell line. The TF-1 cell line was established from sample from patient with severe pancytopenia (human erythroleukemia). The growth of these cells is dependent of the presence of the granulocyte-macrophage colony-stimulating factor (GM-SCF). The TF-1 cells were grown in Dulbecco's Modified Eagle Medium (DMEM) supplemented with 10% (v/v) heat inactivated foetal calf serum (FCS), 2 mM GlutaMAX, penicillin (100 U/ml) and streptomycin (100 μg/ml), 10 mM HEPES, 1 mM sodium pyruvate, 1% fungizone. The growth medium was supplemented with 2 ng/ml GM-CSF. Cell proliferation was determined using a Biotrak ELISA system, version 2 (Amersham Biosciences, UK). The procedure is based on measurement of the levels of 5-bromo-2′-deoxyuridine (BrdU) incorporation during DNA synthesis in proliferating cells. Briefly, passaged cells were washed once with starving medium (culturing medium without GM-CSF) then plated in 96-well Nuclon culture microplates (Nuno, Denmark) at a density of 5000 cells/well and grown in starving medium containing 0.008, 0.04, 0.2, 1.0, 5.0, 25 and 50 μg/ml of the tested compounds. As a positive control the human recombinant erythropoietin (EPO) (Calbiochem, Denmark) was used in a concentration of 2.0 ng/ml. TF-1 cells were allowed to grow in the presence of peptides for 24 h and than to all wells (except negative controls) BrdU was added to a final concentration of 10 μM and cultures were further incubated for 24 h, fixed and processed according to the procedure recommended by manufacturer, […]

rat brain after TBI [3] = experiment: Astrocytosis after traumatic brain injury (GFAP IHC); type: in vivo; conditions: s.c., 3 days after lesion
Protocol: (§1) Male rats (wistar) (tree groups, 5 rats/group) were injected s.c with different Epo peptides (each group individually with Epo 2, Epo 3 or Epo 4) three times according to the scheme: • 1. the day before the lesion: a single injection of a peptide per animal (1 mg/100 g animal weight); • 2. the 1st day after the lesion: a single injection of a peptide per animal (1 mg/100 g animal weight): • 3. the 2nd day after the lesion: a single injection of a peptide per animal (1 mg/100 g animal weight); • 4. the 3rd day after the lesion: animals are sacrificed.
(§2) Control groups were a group (4 rats) injected with the vehicle (water) and a group (4 rats), injected with human recombinant EPO (hrEPO) in dose 50 μg/100 g rat according to the above scheme.
A traumatic brain injury (TBI) was induced by applying dry ice (−78 C) to the extracranial surface of the skull for 60 sec, which induces a focal injury in the right fronto-parietal cortex. […]
For immunohistochemistry the sections of the brains were incubated overnight with polyclonal rabbit anti-cow GFAP, GAP-43, 8-oxoguanine, or PSA-NCAM antibodies 1:250 (Dakopatts). The primary antibodies were detected in the sections with biotinylated secondary antibodies followed by incubation with streptavidin-biotin-peroxidase (30 min). […]

rat brain after TBI [4] = experiment: Oxidative DNA damage after traumatic brain injury (8-oxoguanine immunostaining); type: in vivo; conditions: s.c., 3 days after lesion
Protocol: as §1, §2
(§3) A traumatic brain injury (TBI) was induced by applying dry ice (−78 C) to the extracranial surface of the skull for 60 sec, which induces a focal injury in the right fronto-parietal cortex. Three days after the lesion (3 dpl) rats were deeply anesthetized with Brietal (10 mg/100 gr) and fixed by transcardial perfusion with 0.9% NaCl and 0.3% heparin, followed by Zamboni's fixative. The brains were removed, dehydrated according to the standard protocol, embedded in paraffin, and cut in 6-μm-thick frontal sections for further evaluation by immunohistochemistry and TUNEL.
(§4) For immunohistochemistry the sections of the brains were incubated overnight with polyclonal rabbit anti-cow GFAP, GAP-43, 8-oxoguanine, or PSA-NCAM antibodies 1:250 (Dakopatts). The primary antibodies were detected in the sections with biotinylated secondary antibodies followed by incubation with streptavidin-biotin-peroxidase (30 min). Afterwards, the sections were incubated with biotinylated tyramide and streptavidin-peroxidase complex (NEN, Life Science Products, USA, code NEL700A) prepared following the manufacturer recommendations, and visualized with 0.015% H2O2 in DAB/TBS for 10 min.

rat brain after TBI [5] = experiment: Neuroplasticity and neurite outgrowth in vivo after TBI (PSA-NCAM and GAP-43 immunostaining)
Protocol: as §1, §2, §3, §4

[6] = Hematocrit in rats after the brain lesion; type: in vivo; conditions: rat after brain lesion, peptide 1 mg/100 g s.c., p>0.02
Protocol: as §1, §2

rat brain after TBI [7] = experiment: Programmed cell death after traumatic brain injury (TUNEL); type: in vivo; conditions: s.c., 3 days after lesion
Protocol: as §1, §2
A traumatic brain injury (TBI) was induced by applying dry ice (−78 C) to the extracranial surface of the skull for 60 sec, which induces a focal injury in the right fronto-parietal cortex. Three days after the lesion (3 dpl) rats were deeply anesthetized with Brietal (10 mg/100 gr) and fixed by transcardial perfusion with 0.9% NaCl and 0.3% heparin, followed by Zamboni's fixative. The brains were removed, dehydrated according to the standard protocol, embedded in paraffin, and cut in 6-μm-thick frontal sections for further evaluation by immunohistochemistry and TUNEL. […]

Sequence | neurite outgrowth from CGN (neuritogenic activity) [1] | neurite outgrowth from CGN (neuritogenic activity) ([1]; listed as SEQ ID NO: 2) | protection of CGN induced to undergo apoptosis (neuronal survival) (Primary cultures of CGN) | proliferation of TF-1 cells ([2]; concentrations of 25 and 50 μg/ml) | astrocytosis (reactive astrogliosis) by GFAP IHC (rat brain after TBI [3]) | 8-oxoguanine positive cells (oxidative DNA damage) (rat brain after TBI [4]) | neurite outgrowth in vivo (GAP-43 immunostaining) (rat brain after TBI [5]; cortical lesion area, choroid plexus, hippocampus, hypothalamus) | effect on the hematocrit vs control [6] | effect on the hematocrit vs control ([6]; listed as Epo 2) | neurite outgrowth from CGN (neuritogenic activity) ([1]; listed as SEQ ID NO: 1) | proliferation of TF-1 cells ([2]; concentration of 0.2 μg/ml) | proliferation of TF-1 cells ([2]; concentration of 50 μg/ml) | neurite outgrowth from CGN (neuritogenic activity) ([1]; listed as SEQ ID NO: 4) | stimulation of haemopoietic cell proliferation (general conclusion) ([2]; no concentration stated) | TUNEL-positive apoptotic cells around the necrotic cavity (rat brain after TBI [7]) | level of PSA-NCAM staining (rat brain after TBI [5]; area adjusted to the lesion and subventricular zone)
NENITVPDTKVNFYAWKR (Derived from human erythropoietin, Swiss Prot P01588) [Epo2, peptide fragment derived from human erythropoietin] | capable of stimulating neurite outgrowth | strongly induce neurite outgrowth | strongest neuroprotective effect | stimulates proliferation of TF-1 cells | mast pronounced increase in reactive astrogliosis | lowest number of the 8-oxoguanine positive cells | stimulates neurite outgrowth | no statistically significant effect | no significant effect | – | – | – | – | – | – | –
DSRVLERYLLEAKE (Derived from human erythropoietin, Swiss Prot P01588) [Epo1, peptide fragment derived from human erythropoietin] | – | – | – | – | – | – | – | – | – | do net have any neuritogenic activity | probably had a stimulatory effect | stimulates proliferation of TF-1 cells | – | – | – | –
RVYSNFLRGKLKLYTGEA (Derived from human erythropoietin, Swiss Prot P01588) [Epo4, peptide fragment derived from human erythropoietin] | capable of stimulating neurite outgrowth | – | strongest neuroprotective effect | – | least effect | significantly reduced oxidative DNA damage | – | no statistically significant effect | – | – | – | stimulate proliferation of TF-1 cells | strongly induce neurite outgrowth | most potent among them | lowest level of apoptosis | significantly increases the level of PSA-NCAM staining
